Assay results published in patent EP4289427A1, “DIHYDRO[1,8]NAPHTHYRIDIN-7-ONE AND PYRIDO[3,2-B][1,4]OXAZIN-3-ONE FOR USE IN TREATING CANCER, AND METASTASES IN PARTICULAR” (Anagenesis Biotechnologies, priority 2022, dated 2023).

Legend:
4T1 cells [1] = test: Epithelial-mesenchymal transition marker expression by qRT-PCR; type: cell-based, Mouse; parameters: key: ↗: increased expression; ↘: decreased expression; =: unchanged expression levels; conditions: 24 hours, expression normalized against RPL13
Source text: The epithelial-mesenchymal transition (hereafter "EMT") is a process by which epithelial cells lose their cell polarity and cell-cell adhesion while gaining migratory and invasive properties to become mesenchymal stem cells. EMT is commonly measured by quantifying both epithelial and mesenchymal marker's expression by quantitative reverse-transcription polymerase chain reaction (hereafter "qRT-PCR"). EMT inhibition is observed when epithelial markers are stable or increased while mesenchymal markers are decreased.
4T1 cells were treated with compounds to be tested or DMSO for 24 hours. 4T1 cells were then harvested directly in NucleoZol lysis buffer (cat. no. 740404.200 from Macherey-Nagel), according to the manufacturer's instructions. Total RNA was extracted using the NucleoSpin RNA set for NucleoZol (cat. no. 740406.50 from Macherey-Nagel). The quantity and purity of RNA was determined using a Quickdrop (Molecular Devices). RT-PCR was performed on 500 ng total RNA using iScript gDNA clear cDNA synthesis Kit (cat.no. 1725035 from Biorad). The qPCR was run on a QuantStudio 5 real time thermocycler (Applied Biosystems), with PowerUp SYBR Green Master Mix (cat.no. A25742 from Fisher Scientific) and the primers listed in Table 16.
Expression data of EMT markers have been normalized against expression data of the housekeeping gene RPL13.

MDA-MB-231 cells = test: Cytotoxicity assay (CellTiter-Glo 2.0) on MDA-MB-231 cells; type: cell-based, Human; conditions: incubation 3 days; for IC50: Homo sapiens, 72 h; as to Cytotoxicity: test concentration or dose not given here
Outline: (§1)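 Each line is plated at a defined density in its growth medium and treated with test compounds for a duration set per cell line. Remaining viability is then measured by CellTiter-Glo 2.0 ATP luminescence and expressed as relative IC50.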

HUVECs = test: Tube formation assay (anti-angiogenic activity); type: cell-based, human; conditions: incubation 16 to 18 hours; for IC50: Homo sapiens, HUVEC; as to Angiogenesis inhibition: test concentration or dose not given here
Outline: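 HUVECs plated at 5000 cells/well on reduced growth factor basement membrane matrix, then exposed to compounds for 16 to 18 hours at 37°C. Cells stained with calcein-AM; tube networks imaged by confocal fluorescence microscopy and quantified.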

4T1 cells [2] = test: Cytotoxicity assay (CellTiter-Glo 2.0) on 4T1 cells; type: cell-based, Mouse; conditions: incubation 2 days; for IC50: Mus musculus, 48 h; as to Cytotoxicity: test concentration or dose not given here
Outline: as §1

RD cells = test: Cytotoxicity assay (CellTiter-Glo 2.0) on RD cells; type: cell-based, Human; conditions: for IC50: Homo sapiens; as to Cytotoxicity: test concentration or dose not given here
Outline: as §1

EoL-1 cells = test: Cytotoxicity assay (CellTiter-Glo 2.0) on EoL-1 cells; type: cell-based, Human; conditions: incubation 1 day; for IC50: Homo sapiens, EOL1, 24 h; as to Cytotoxicity: test concentration or dose not given here
Outline: as §1

Compound	Epithelial markers E-cadherin (4T1 cells [1])	Epithelial markers EpCAM (4T1 cells [1])	Mesenchymal markers Fibronectin (4T1 cells [1])	Mesenchymal markers Vimentin (4T1 cells [1])	IC50 (MDA-MB-231 cells) [nM]	Cytotoxicity (MDA-MB-231 cells)	IC50 (HUVECs) [nM]	Angiogenesis inhibition (HUVECs)	IC50 (4T1 cells [2]) [nM]	Cytotoxicity (4T1 cells [2])	Cytotoxicity (RD cells; 2 day-treatment)	Cytotoxicity (RD cells; 4 day-treatment)	IC50 (RD cells; 48 h, 2 day-treatment) [nM]	IC50 (RD cells; 96 h, 4 day-treatment) [nM]	IC50 (EoL-1 cells) [nM]	Cytotoxicity (EoL-1 cells)
CSc1cc(Oc2ccnc3c2CCC(=O)N3)ccc1NC(=O)Nc1cc(C(C)(C)C)nn1-c1cncc(F)c1 [Compound 027, 1-[5-tert-butyl-2-(5-fluoro-3-pyridyl)pyrazol-3-yl]-3-[2-methylsulfanyl-4-[(7-oxo-6,8-dihydro-5H-1,8-naphthyridin-4-yl)oxy]phenyl]urea]	↗	=	↘	↘	< 1000	++ (50% ≤ cytotoxicity < 85%)	< 100	+++ (angiogenesis inhibition ≥ 80%)	< 1000	+++ (cytotoxicity ≥ 85%)	++ (50% ≤ cytotoxicity < 85%)	++ (50% ≤ cytotoxicity < 85%)	1000 to 5000	1000 to 5000	1 to 10	+++ (cytotoxicity ≥ 85%)
CSc1cc(Oc2ccnc3c2OCC(=O)N3)ccc1NC(=O)Nc1cc(C(C)(C)C)nn1-c1ccc(CCN2CCOCC2)cc1 [Compound 052, 1-[5-tert-butyl-2-[4-[2-(morpholino)ethyl]phenyl]pyrazol-3-yl]-3-[2-methylsulfanyl-4-[(3-oxo-4H-pyrido[3,2-b][1,4]oxazin-8-yl)oxy]phenyl]urea]					1000 to 5000	+++ (cytotoxicity ≥ 85%)	< 100	+++ (angiogenesis inhibition ≥ 80%)	< 1000	+++ (cytotoxicity ≥ 85%)	++ (50% ≤ cytotoxicity < 85%)	++ (50% ≤ cytotoxicity < 85%)	1000 to 5000	1000 to 5000	1 to 10	+++ (cytotoxicity ≥ 85%)
CSc1cc(Oc2ccnc3c2CCC(=O)N3)ccc1NC(=O)Nc1cc(C(C)(C)C)on1 [Compound 026, 1-(5-tert-butylisoxazol-3-yl)-3-[2-methylsulfanyl-4-[(7-oxo-6,8-dihydro-5H-1,8-naphthyridin-4-yl)oxy]phenyl]urea]					1000 to 5000	++ (50% ≤ cytotoxicity < 85%)	100 to 500	+++ (angiogenesis inhibition ≥ 80%)	1000 to 5000	+++ (cytotoxicity ≥ 85%)	++ (50% ≤ cytotoxicity < 85%)	++ (50% ≤ cytotoxicity < 85%)	1000 to 5000	1000 to 5000	< 1	+++ (cytotoxicity ≥ 85%)
CC(C)(C)c1cc(NC(=O)Nc2ccc(Oc3ccnc4c3CCC(=O)N4)c3ccccc23)on1 [Compound 009, 1-(3-(tert-butyl)isoxazol-5-yl)-3-(4-((7-oxo-5,6,7,8-tetrahydro-1,8-naphthyridin-4-yl)oxy)naphthalen-1-yl)urea]					< 1000	++ (50% ≤ cytotoxicity < 85%)	< 100	+++ (angiogenesis inhibition ≥ 80%)	< 1000	+++ (cytotoxicity ≥ 85%)	++ (50% ≤ cytotoxicity < 85%)	++ (50% ≤ cytotoxicity < 85%)	1000 to 5000	1000 to 5000	1 to 10	+++ (cytotoxicity ≥ 85%)
CC(C)(C)c1cnc(NC(=O)Nc2ccc(Oc3ccnc4c3CCC(=O)N4)c3ccccc23)s1 [Compound 007, 1-(5-(tert-butyl)thiazol-2-yl)-3-(4-((7-oxo-5,6,7,8-tetrahydro-1,8-naphthyridin-4-yl)oxy)naphthalen-1-yl)urea]					1000 to 5000	++ (50% ≤ cytotoxicity < 85%)	< 100	+++ (angiogenesis inhibition ≥ 80%)	1000 to 5000	+++ (cytotoxicity ≥ 85%)	+ (20 % ≤ cytotoxicity < 50%)	++ (50% ≤ cytotoxicity < 85%)	5000 to 10000	1000 to 5000	10 to 100	+++ (cytotoxicity ≥ 85%)
Cc1ccc(-n2nc(C(C)(C)C)cc2NC(=O)Nc2ccc(Oc3ccnc4c3OCC(=O)N4)cc2C(F)(F)F)cc1 [Compound 011, 1-[5-tert-butyl-2-(p-tolyl)pyrazol-3-yl]-3-[4-[(3-oxo-4H-pyrido[3,2-b][1,4]oxazin-8-yl)oxy]-2-(trifluoromethyl)phenyl]urea]					1000 to 5000	++ (50% ≤ cytotoxicity < 85%)	100 to 500	+++ (angiogenesis inhibition ≥ 80%)	1000 to 5000	+++ (cytotoxicity ≥ 85%)	+ (20 % ≤ cytotoxicity < 50%)	+ (20 % ≤ cytotoxicity < 50%)	5000 to 10000	≥ 10000	10 to 100	++ (50% ≤ cytotoxicity < 85%)
CSc1cc(Oc2ccnc3c2CCC(=O)N3)ccc1NC(=O)Nc1cc(C(C)(C)C)nn1-c1ccc(CN2CCOCC2)cc1 [Compound 042, 1-[5-tert-butyl-2-[4-(morpholinomethyl)phenyl]pyrazol-3-yl]-3-[2-methylsulfanyl-4-[(7-oxo-6,8-dihydro-5H-1,8-naphthyridin-4-yl)oxy]phenyl]urea]					1000 to 5000	++ (50% ≤ cytotoxicity < 85%)	< 100	+++ (angiogenesis inhibition ≥ 80%)	< 1000	+++ (cytotoxicity ≥ 85%)	++ (50% ≤ cytotoxicity < 85%)	++ (50% ≤ cytotoxicity < 85%)	1000 to 5000	1000 to 5000	1 to 10	+++ (cytotoxicity ≥ 85%)
CSc1cc(Oc2ccnc3c2OCC(=O)N3)ccc1NC(=O)Nc1cc(C(C)(C)C)nn1-c1ccc(CN2CCN(C)CC2)cc1 [Compound 054, 1-[5-tert-butyl-2-[4-[(4-methylpiperazin-1-yl)methyl]phenyl]pyrazol-3-yl]-3-[2-methylsulfanyl-4-[(3-oxo-4H-pyrido[3,2-b][1,4]oxazin-8-yl)oxy]phenyl]urea]					1000 to 5000	+++ (cytotoxicity ≥ 85%)	< 100	+++ (angiogenesis inhibition ≥ 80%)	1000 to 5000	+++ (cytotoxicity ≥ 85%)	+++ (cytotoxicity ≥ 85%)	+++ (cytotoxicity ≥ 85%)	1000 to 5000	1000 to 5000	1 to 10	+++ (cytotoxicity ≥ 85%)
CSc1cc(Oc2ccnc3c2CCC(=O)N3)ccc1NC(=O)Nc1cc(C(C)(C)C)nn1-c1ccc(CN(C)C)cc1 [Compound 046, 1-[5-tert-butyl-2-[4-(dimethylaminomethyl)phenyl]pyrazol-3-yl]-3-[2-methylsulfanyl-4-[(7-oxo-6,8-dihydro-5H-1,8-naphthyridin-4-yl)oxy]phenyl]urea]					1000 to 5000	+++ (cytotoxicity ≥ 85%)	< 100	+++ (angiogenesis inhibition ≥ 80%)	< 1000	+++ (cytotoxicity ≥ 85%)	+++ (cytotoxicity ≥ 85%)	+++ (cytotoxicity ≥ 85%)	5000 to 10000	1000 to 5000	< 1	+++ (cytotoxicity ≥ 85%)
CSc1cc(Oc2ccnc3c2CCC(=O)N3)ccc1NC(=O)Nc1ncc(C(C)(C)C)s1 [Compound 004, 1-(5-(tert-butyl)thiazol-2-yl)-3-(2-(methylthio)-4-((7-oxo-5,6,7,8-tetrahydro-1,8-naphthyridin-4-yl)oxy)phenyl)urea]					< 1000	++ (50% ≤ cytotoxicity < 85%)	100 to 500	+++ (angiogenesis inhibition ≥ 80%)	1000 to 5000	+++ (cytotoxicity ≥ 85%)	+ (20 % ≤ cytotoxicity < 50%)	++ (50% ≤ cytotoxicity < 85%)	1000 to 5000	1000 to 5000	1 to 10	+++ (cytotoxicity ≥ 85%)
